Source: ChEMBL document CHEMBL3286290, “In vitro screening of pentamidine analogs against bacterial and fungal strains” (Bioorg Med Chem Lett, 2014)

Legend:
Micrococcus luteus [1] = assay: Antibacterial activity against Micrococcus luteus ATCC 9341 assessed as growth inhibition by M7-A6 method; assay type: functional
Micrococcus luteus [2] = assay: Antibacterial activity against Micrococcus luteus ATCC 10240 assessed as growth inhibition by M7-A6 method; assay type: functional
Bacillus subtilis = assay: Antibacterial activity against Bacillus subtilis ATCC 6633 assessed as growth inhibition by M7-A6 method; assay type: functional
Bacillus cereus = assay: Antibacterial activity against Bacillus cereus ATCC 11778 assessed as growth inhibition by M7-A6 method; assay type: functional
Staphylococcus aureus [3] = assay: Antibacterial activity against Staphylococcus aureus ATCC 6538 assessed as growth inhibition by M7-A6 method; assay type: functional
Staphylococcus aureus [4] = assay: Antibacterial activity against Staphylococcus aureus ATCC 6538P assessed as growth inhibition by M7-A6 method; assay type: functional
Escherichia coli = assay: Antibacterial activity against Escherichia coli ATCC 8739 assessed as growth inhibition by M7-A6 method; assay type: functional
Pseudomonas aeruginosa [5] = assay: Antibacterial activity against Pseudomonas aeruginosa ATCC 15442 assessed as growth inhibition by M7-A6 method; assay type: functional
Pseudomonas aeruginosa [6] = assay: Antibacterial activity against Pseudomonas aeruginosa ATCC 9027 assessed as growth inhibition by M7-A6 method; assay type: functional
Candida albicans [7] = assay: Antifungal activity against Candida albicans ATCC 10231 assessed as growth inhibition by M7-A6 method; assay type: functional
Candida albicans [8] = assay: Antifungal activity against Candida albicans ATCC 2091 assessed as growth inhibition by M7-A6 method; assay type: functional
Candida parapsilosis = assay: Antifungal activity against Candida parapsilosis ATCC 22019 assessed as growth inhibition by M7-A6 method; assay type: functional; conditions: Lodderomyces parapsilosis
Aspergillus brasiliensis = assay: Antifungal activity against Aspergillus brasiliensis ATCC 16404 assessed as growth inhibition by M7-A6 method; assay type: functional
Saccharomyces cerevisiae = assay: Antifungal activity against Saccharomyces cerevisiae ATCC 9763 assessed as growth inhibition by M7-A6 method; assay type: functional
Staphylococcus aureus [9] = assay: Antibacterial activity against erythromycin, amikacin, clindamycin, ciprofloxacin, methicillin-resistant Staphylococcus aureus 15K/11 assessed as growth inhibition by M7-A6 method; assay type: functional
Staphylococcus aureus [10] = assay: Antibacterial activity against penicillin, erythromycin, amikacin, clindamycin, ciprofloxacin, methicillin-resistant Staphylococcus aureus 495/11 assessed as growth inhibition by M7-A6 method; assay type: functional
Staphylococcus aureus [11] = assay: Antibacterial activity against penicillin, erythromycin, amikacin, clindamycin, ciprofloxacin, methicillin-resistant Staphylococcus aureus 572/12 assessed as growth inhibition by M7-A6 method; assay type: functional
Staphylococcus aureus [12] = assay: Antibacterial activity against penicillin, erythromycin, clindamycin, ciprofloxacin, methicillin-resistant Staphylococcus aureus 19K/11 assessed as growth inhibition by M7-A6 method; assay type: functional
Staphylococcus aureus [13] = assay: Antibacterial activity against penicillin, erythromycin, amikacin, clindamycin, ciprofloxacin, methicillin-resistant Staphylococcus aureus 573/12 assessed as growth inhibition by M7-A6 method; assay type: functional
A549 [14] = assay: Cytotoxicity against human A549 cells assessed as inhibition of cell viability after 48 hrs by MTT assay; assay type: cell-based; conditions: A549, 48 h
A549 [15] = assay: Cytotoxicity against human A549 cells assessed as inhibition of cell viability after 72 hrs by MTT assay; assay type: cell-based; conditions: A549, 72 h
HeLa [16] = assay: Cytotoxicity against human HeLa cells assessed as inhibition of cell viability after 48 hrs by MTT assay; assay type: cell-based
HeLa [17] = assay: Cytotoxicity against human HeLa cells assessed as inhibition of cell viability after 72 hrs by MTT assay; assay type: cell-based
[18] = Cytotoxicity against human A549 cells assessed as cell viability at 200 ug/ml after 48 hrs by MTT assay; assay type: cell-based; conditions: read-out: Activity
[19] = Cytotoxicity against human A549 cells assessed as cell viability at 100 ug/ml after 48 hrs by MTT assay; assay type: cell-based; conditions: read-out: Activity
[20] = Cytotoxicity against human A549 cells assessed as cell viability at 50 ug/ml after 48 hrs by MTT assay; assay type: cell-based; conditions: read-out: Activity
[21] = Cytotoxicity against human A549 cells assessed as cell viability at 10 ug/ml after 48 hrs by MTT assay; assay type: cell-based; conditions: read-out: Activity
[22] = Cytotoxicity against human A549 cells assessed as cell viability at 200 ug/ml after 72 hrs by MTT assay; assay type: cell-based; conditions: read-out: Activity
[23] = Cytotoxicity against human A549 cells assessed as cell viability at 100 ug/ml after 72 hrs by MTT assay; assay type: cell-based; conditions: read-out: Activity
[24] = Cytotoxicity against human A549 cells assessed as cell viability at 50 ug/ml after 72 hrs by MTT assay; assay type: cell-based; conditions: read-out: Activity
[25] = Cytotoxicity against human A549 cells assessed as cell viability at 10 ug/ml after 72 hrs by MTT assay; assay type: cell-based; conditions: read-out: Activity
[26] = Cytotoxicity against human HeLa cells assessed as cell viability at 200 ug/ml after 48 hrs by MTT assay; assay type: cell-based; conditions: read-out: Activity
[27] = Cytotoxicity against human HeLa cells assessed as cell viability at 100 ug/ml after 48 hrs by MTT assay; assay type: cell-based; conditions: read-out: Activity
[28] = Cytotoxicity against human HeLa cells assessed as cell viability at 50 ug/ml after 48 hrs by MTT assay; assay type: cell-based; conditions: read-out: Activity
[29] = Cytotoxicity against human HeLa cells assessed as cell viability at 10 ug/ml after 48 hrs by MTT assay; assay type: cell-based; conditions: read-out: Activity
[30] = Cytotoxicity against human HeLa cells assessed as cell viability at 200 ug/ml after 72 hrs by MTT assay; assay type: cell-based; conditions: read-out: Activity
[31] = Cytotoxicity against human HeLa cells assessed as cell viability at 100 ug/ml after 72 hrs by MTT assay; assay type: cell-based; conditions: read-out: Activity
[32] = Cytotoxicity against human HeLa cells assessed as cell viability at 50 ug/ml after 72 hrs by MTT assay; assay type: cell-based; conditions: read-out: Activity
[33] = Cytotoxicity against human HeLa cells assessed as cell viability at 10 ug/ml after 72 hrs by MTT assay; assay type: cell-based; conditions: read-out: Activity

Cl.c1cc(C2=NCCN2)ccc1OCCSCCOc1ccc(C2=NCCN2)cc1
MIC (Micrococcus luteus [1]): 9.8 µM | MIC (Micrococcus luteus [2]): 9.8 µM | MIC (Bacillus subtilis): 240 µM | MIC (Bacillus cereus): 980 µM | MIC (Staphylococcus aureus [3]): 980 µM | MIC (Staphylococcus aureus [4]): 980 µM | MIC (Escherichia coli): 980 µM | MIC (Pseudomonas aeruginosa [5]): > 1960 µM | MIC (Pseudomonas aeruginosa [6]): > 1960 µM | MIC (Candida albicans [7]): 240 µM | MIC (Candida albicans [8]): 240 µM | MIC (Candida parapsilosis): 29 µM | MIC (Aspergillus brasiliensis): > 1960 µM | MIC (Saccharomyces cerevisiae): 980 µM | MIC (Staphylococcus aureus [9]): 980 µM | MIC (Staphylococcus aureus [10]): 1960 µM | MIC (Staphylococcus aureus [11]): 1960 µM | MIC (Staphylococcus aureus [12]): 1960 µM | MIC (Staphylococcus aureus [13]): 1960 µM | IC50 (A549 [14]): > 100 µg/mL | IC50 (A549 [15]): ≥ 50 µg/mL | IC50 (HeLa [16]): > 100 µg/mL | IC50 (HeLa [17]): > 100 µg/mL | viability at 48 h, 200 ug/ml [18]: 16.5% | viability at 48 h, 100 ug/ml [19]: 52.6% | viability at 48 h, 50 ug/ml [20]: 63.6% | viability at 48 h, 10 ug/ml [21]: 80.3% | viability at 72 h, 200 ug/ml [22]: 10.2% | viability at 72 h, 100 ug/ml [23]: 34.4% | viability at 72 h, 50 ug/ml [24]: 49% | viability at 72 h, 10 ug/ml [25]: 59.1% | viability at 48 h, 200 ug/ml [26]: 16.5% | viability at 48 h, 100 ug/ml [27]: 53.5% | viability at 48 h, 50 ug/ml [28]: 68.5% | viability at 48 h, 10 ug/ml [29]: 76.9% | viability at 72 h, 200 ug/ml [30]: 10.7% | viability at 72 h, 100 ug/ml [31]: 41.8% | viability at 72 h, 50 ug/ml [32]: 68.1% | viability at 72 h, 10 ug/ml [33]: 67.7%

Cl.N=C(NC1CCCCC1)c1ccc(OCCSCCOc2ccc(C(=N)NC3CCCCC3)cc2)cc1
MIC (Micrococcus luteus [1]): 3.2 µM | MIC (Micrococcus luteus [2]): 0.81 µM | MIC (Bacillus subtilis): 12 µM | MIC (Bacillus cereus): 100 µM | MIC (Staphylococcus aureus [3]): 3.2 µM | MIC (Staphylococcus aureus [4]): 3.2 µM | MIC (Escherichia coli): 100 µM | MIC (Pseudomonas aeruginosa [5]): > 1630 µM | MIC (Pseudomonas aeruginosa [6]): > 1630 µM | MIC (Candida albicans [7]): 3.2 µM | MIC (Candida albicans [8]): 3.2 µM | MIC (Candida parapsilosis): 3.2 µM | MIC (Aspergillus brasiliensis): 3.2 µM | MIC (Saccharomyces cerevisiae): 24 µM | MIC (Staphylococcus aureus [9]): 100 µM | MIC (Staphylococcus aureus [10]): 200 µM | MIC (Staphylococcus aureus [11]): 100 µM | MIC (Staphylococcus aureus [12]): 12 µM | MIC (Staphylococcus aureus [13]): 12 µM | IC50 (A549 [14]): > 100 µg/mL | IC50 (A549 [15]): ≥ 50 µg/mL | IC50 (HeLa [16]): > 100 µg/mL | IC50 (HeLa [17]): > 100 µg/mL | viability at 48 h, 200 ug/ml [18]: 61.4% | viability at 48 h, 100 ug/ml [19]: 63.9% | viability at 48 h, 50 ug/ml [20]: 74.9% | viability at 48 h, 10 ug/ml [21]: 84.6% | viability at 72 h, 200 ug/ml [22]: 54.3% | viability at 72 h, 100 ug/ml [23]: 59.7% | viability at 72 h, 50 ug/ml [24]: 59.2% | viability at 72 h, 10 ug/ml [25]: 69.6% | viability at 48 h, 200 ug/ml [26]: 15.3% | viability at 48 h, 100 ug/ml [27]: 70.8% | viability at 48 h, 50 ug/ml [28]: 95.8% | viability at 48 h, 10 ug/ml [29]: 95.3% | viability at 72 h, 200 ug/ml [30]: 12.3% | viability at 72 h, 100 ug/ml [31]: 66.9% | viability at 72 h, 50 ug/ml [32]: 96.6% | viability at 72 h, 10 ug/ml [33]: 94.6%
